Reference: patent US11505523B2, “HDAC8 inhibitors for treating cancer” (City of Hope, priority 2013, dated 2022)

Key:
HDAC1 = HDAC1 (Homo sapiens (Human), UniProt Q13547); assay: Inhibition of purified HDAC1; format: biochemical; details: class I; read-out: HDAC 1 IC50
HeLa nuclear HDACs = assay: Inhibition of HeLa nuclear HDACs (HeLa nuclear extract, mainly HDACs1-3); format: biochemical; details: read-out: HeLa HDAC IC50
MV4-11 cells [1] = assay: Survival/apoptosis of MV4-11 AML cells by Annexin V labeling; format: cell-based, human
MOLM13 cells = assay: Proliferation of MOLM13 cells, luminescent cell viability assay; format: cell-based, human; details: 48-hr, luminescent cell viability assay; read-out: MOLM13 Proliferation IC50
[2] = system: inv(16)^+ AML CD34^+ cells; assay: Apoptosis of inv(16)+ AML CD34+ cells, Annexin V staining; format: cell-based, human
Excerpt: Given that the frequency of TP53 mutation is relatively low in AML, altered post-translational modification by HDAC8 could represent an alternative p53-inactivating mechanism and contribute to drug resistance of AML stem cells. We first examined the expression of HDAC8 in CD34^+ stem and progenitor cells isolated from patients with inv(16)^+ AML compared to normal mobilized peripheral blood stem cells (PBSC).

CM-p53 protein complex = assay: Interaction of CM with p53 under HDAC8i treatment; format: cell-based
Excerpt: Cells were lysed in RIPA buffer containing protease inhibitor cocktail (Roche) and MG132. Antibodies used for IP were conjugated with protein A/G beads using the antibody cross-linking kit (Pierce Biotechnology, Rockford, Ill.) following manufacturer's protocol. For Western blot, proteins were resolved in 10% SDS-PAGE. The antibodies used induced anti-FLAG (Sigma), anti-HDAC8, anti-CBFβ (Santa Cruz), anti-p53 (DO-1), anti-Ac-p53 (K379) (Cell Signaling), anti-p53 (Cell signaling) and anti-β-actin (Sigma). Horseradish peroxidase-conjugated anti-rabbit or anti-mouse secondary antibodies (Jackson ImmunoResearch, West Grove Pa.) were used, followed by detection using the SuperFemto kit (Pierce Biotechnology, Rockford, Ill.).
Class 1 HDACs, including HDAC1, HDAC2, and HDAC3, reportedly could inhibit p53 activity by deacetylating p53 [41-43]. […] To test this, we used lentivirus (pLKO. 1) mediated expression of 2 independent small-hairpin (sh)-RNA sequences against Hdac8 to specifically knock-down Hdac8 in 32D-CM cells. Cells were exposed to IR (3Gy) and analyzed for levels of p53 acetylation 6 h after.

HDAC3 = HDAC3 (Homo sapiens (Human), UniProt O15379); assay: Inhibition of purified HDAC3; details: read-out: HDAC 3 IC50; class I
Chain of HDAC3 (O15379 whole entry, looked up, species assumed): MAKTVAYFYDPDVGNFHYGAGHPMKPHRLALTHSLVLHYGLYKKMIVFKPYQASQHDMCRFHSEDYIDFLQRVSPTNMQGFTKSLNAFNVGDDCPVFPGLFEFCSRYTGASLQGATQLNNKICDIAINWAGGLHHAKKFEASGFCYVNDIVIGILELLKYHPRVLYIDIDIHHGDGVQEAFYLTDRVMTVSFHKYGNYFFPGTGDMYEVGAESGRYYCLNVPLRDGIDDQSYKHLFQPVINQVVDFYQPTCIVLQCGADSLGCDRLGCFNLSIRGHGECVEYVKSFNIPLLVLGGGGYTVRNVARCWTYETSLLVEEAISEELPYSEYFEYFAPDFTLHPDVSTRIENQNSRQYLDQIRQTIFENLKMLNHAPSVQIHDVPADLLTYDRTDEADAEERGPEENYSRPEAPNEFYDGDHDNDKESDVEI
Chain of HDAC3 (Q9Y618 whole entry partner, looked up, species assumed): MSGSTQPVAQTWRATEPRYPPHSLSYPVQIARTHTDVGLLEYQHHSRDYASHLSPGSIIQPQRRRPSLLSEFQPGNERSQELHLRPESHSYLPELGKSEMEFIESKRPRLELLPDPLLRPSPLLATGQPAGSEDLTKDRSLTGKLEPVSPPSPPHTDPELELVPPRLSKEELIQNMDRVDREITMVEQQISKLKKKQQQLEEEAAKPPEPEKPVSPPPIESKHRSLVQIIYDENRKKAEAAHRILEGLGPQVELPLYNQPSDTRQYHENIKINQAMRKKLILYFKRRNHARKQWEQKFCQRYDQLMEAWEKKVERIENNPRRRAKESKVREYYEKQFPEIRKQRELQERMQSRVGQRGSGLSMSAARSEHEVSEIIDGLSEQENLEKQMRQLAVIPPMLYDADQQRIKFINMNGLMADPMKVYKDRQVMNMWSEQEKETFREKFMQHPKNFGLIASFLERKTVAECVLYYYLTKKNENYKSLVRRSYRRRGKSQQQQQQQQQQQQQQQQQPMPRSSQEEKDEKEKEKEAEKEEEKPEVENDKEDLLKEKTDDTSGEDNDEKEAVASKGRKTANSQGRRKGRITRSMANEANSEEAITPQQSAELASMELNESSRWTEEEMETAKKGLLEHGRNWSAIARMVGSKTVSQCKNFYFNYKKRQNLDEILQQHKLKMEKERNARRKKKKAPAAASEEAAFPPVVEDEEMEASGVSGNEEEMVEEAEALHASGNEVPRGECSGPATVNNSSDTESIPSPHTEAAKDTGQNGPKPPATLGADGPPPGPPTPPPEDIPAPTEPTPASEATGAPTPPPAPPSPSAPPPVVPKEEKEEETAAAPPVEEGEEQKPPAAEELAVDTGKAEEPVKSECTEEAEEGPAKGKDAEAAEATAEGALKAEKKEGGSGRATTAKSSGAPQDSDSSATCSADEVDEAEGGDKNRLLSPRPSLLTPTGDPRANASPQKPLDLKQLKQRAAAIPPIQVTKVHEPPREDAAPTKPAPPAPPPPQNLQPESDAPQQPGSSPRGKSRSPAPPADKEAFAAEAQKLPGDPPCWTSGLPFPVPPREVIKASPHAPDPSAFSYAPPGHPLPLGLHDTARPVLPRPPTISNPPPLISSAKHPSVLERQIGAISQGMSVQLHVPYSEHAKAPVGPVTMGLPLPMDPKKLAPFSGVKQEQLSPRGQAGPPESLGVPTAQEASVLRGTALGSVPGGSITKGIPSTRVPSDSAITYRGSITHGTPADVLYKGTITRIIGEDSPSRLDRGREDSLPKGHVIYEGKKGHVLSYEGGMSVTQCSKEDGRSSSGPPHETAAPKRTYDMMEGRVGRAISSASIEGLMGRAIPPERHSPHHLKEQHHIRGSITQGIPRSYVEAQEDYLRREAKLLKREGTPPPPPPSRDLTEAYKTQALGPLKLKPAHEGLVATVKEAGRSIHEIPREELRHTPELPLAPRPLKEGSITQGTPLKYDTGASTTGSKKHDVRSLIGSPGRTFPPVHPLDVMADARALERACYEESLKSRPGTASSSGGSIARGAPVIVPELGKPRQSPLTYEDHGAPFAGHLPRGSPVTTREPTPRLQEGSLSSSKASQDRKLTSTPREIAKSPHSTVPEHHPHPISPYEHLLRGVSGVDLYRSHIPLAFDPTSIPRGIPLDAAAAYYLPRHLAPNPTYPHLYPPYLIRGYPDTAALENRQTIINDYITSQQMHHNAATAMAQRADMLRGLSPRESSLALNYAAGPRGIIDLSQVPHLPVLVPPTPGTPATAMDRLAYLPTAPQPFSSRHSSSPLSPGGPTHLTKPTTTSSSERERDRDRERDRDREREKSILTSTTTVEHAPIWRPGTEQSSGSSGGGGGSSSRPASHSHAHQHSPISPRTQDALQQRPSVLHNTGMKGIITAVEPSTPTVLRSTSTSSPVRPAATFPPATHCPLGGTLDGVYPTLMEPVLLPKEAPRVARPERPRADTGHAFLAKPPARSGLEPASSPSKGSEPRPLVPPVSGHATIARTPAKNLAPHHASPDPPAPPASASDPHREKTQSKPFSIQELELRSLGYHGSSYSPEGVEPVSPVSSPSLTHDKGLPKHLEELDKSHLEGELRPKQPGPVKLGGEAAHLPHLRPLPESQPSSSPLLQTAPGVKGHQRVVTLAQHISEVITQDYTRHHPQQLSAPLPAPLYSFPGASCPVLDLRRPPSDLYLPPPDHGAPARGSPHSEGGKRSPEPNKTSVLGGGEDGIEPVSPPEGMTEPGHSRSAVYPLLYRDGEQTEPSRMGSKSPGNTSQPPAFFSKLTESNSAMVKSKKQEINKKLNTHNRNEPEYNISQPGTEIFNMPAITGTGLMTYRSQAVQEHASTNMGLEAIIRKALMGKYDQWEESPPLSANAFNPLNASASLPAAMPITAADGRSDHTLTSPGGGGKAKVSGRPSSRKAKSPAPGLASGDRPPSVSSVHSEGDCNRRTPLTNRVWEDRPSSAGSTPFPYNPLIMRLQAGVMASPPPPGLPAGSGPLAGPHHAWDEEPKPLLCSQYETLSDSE

H1299 cells = assay: Cytotoxicity / anti-proliferative activity in H1299 lung cancer cells
MV4-11 cells [3] = assay: Proliferation of MV4-11 cells, luminescent cell viability assay; format: cell-based, human; details: 48-hr, luminescent cell viability assay; read-out: MV4-11 Proliferation IC50
[4] = system: Ac-p53 and p53 in MV4-11 cells; assay: Western blot of Ac-p53 and p53 in MV4-11 cells; format: cell-based, human; details: 6-hr, increased HDAC8i concentration
Procedure: FIGS. 21A-21D. HDAC8 inhibition activates p53 and induces p53-dependent apoptosis in human AML cells. […] FIG. 21B: Western blot analysis of Ac-p53, total p53, Ac-H3, Ac-H4, β-actin in MV4-11 cells treated with indicated doses of HDAC8i for 6 h. FIG. 21C: Fold change in mRNA levels of p53 targets after treatment with PCI-48012 ([…]) for 16 h. FIG. 21D: Western blot analysis of p53, β-actin in MV4-11 cells transduced with control or sh-p53 (top). Relative survival of control or sh-p53 transduced MV4-11 cells treated with HDAC8i (bottom).

[5] = system: dTomato^+/cKit^+ AML cells; assay: In vivo administration of 22d to mice transplanted with AML cells
Procedure: FIG. 7A-7I. […] FIG. 7A: Schematic illustration of experimental design. Cbfb^+/56MMx1Cre/tdTomato^+ mice were induced with pIpC and AML cells were isolated from bone marrow of moribund mice and transplanted into sub-lethally irradiated (6.5 Gy) C57Bl/6 congenic mice. […] AML engraftment was analyzed at the end of the treatment period, and transplanted into 2nd recipients. Recipients were analyzed for engraftment at 8 weeks or monitored for leukemia onset and survival. […] Mice were analyzed 8 weeks after transplantation. […] FIG. 7G.
AML cells (1×10^6 or 2×10^6) were directly transplanted into sub-lethally irradiated congenic recipients. […] To further assess the impact on LSC activity, we transplanted bone marrow cells (2×10^6) from these treated mice into secondary recipients and analyzed for AML engraftment.

[6] = system: p53 target genes in inv(16)^+ AML CD34^+ cells; assay: qRT-PCR of p53 target genes in inv(16)+ AML CD34+ cells; format: cell-based, human; details: 10 μM, 16 h
Excerpt: FIGS. 5A-5G. […] FIG. 5A: Relative expression level of HDAC8 in normal (NL) PBSC (n=7) or inv(16)^+ AML (n=7) CD34^+ cells determined by qRT-PCR. Levels of HDAC8 expression were normalized to levels of ACTB in each sample. Dashed line indicates the average of all NL PBSC samples (set to an arbitrary value of 1). […] Each dot represents an individual subject and lines indicate mean±SEM. * P<0.05; ** P<0.01; *** P<0.001. […] Each dot represents an individual patient and lines indicate mean±SEM. * P<0.05; ** P<0.01; *** P<0.001. […] Levels of β-actin were detected as loading control. Shown are representative results from four patients. […] Each dot represents an individual subject and lines indicate mean±SEM. Dash line indicates levels in vehicle treated cells. * P<0.05; ** P<0.01; *** P<0.001. […] Each dot represents an individual patient and lines indicate mean±SEM.

normal IMR-90 cells = assay: Cytotoxicity in normal IMR-90 cells; details: result in words
CL1-5 cells = assay: Cytotoxicity / anti-proliferative activity in CL1-5 lung cancer cells
OCI-AML3 cells = assay: Survival/apoptosis of OCI-AML3 AML cells by Annexin V labeling; format: cell-based, human

Chain of HDAC1 (Q13547 whole entry, species assumed): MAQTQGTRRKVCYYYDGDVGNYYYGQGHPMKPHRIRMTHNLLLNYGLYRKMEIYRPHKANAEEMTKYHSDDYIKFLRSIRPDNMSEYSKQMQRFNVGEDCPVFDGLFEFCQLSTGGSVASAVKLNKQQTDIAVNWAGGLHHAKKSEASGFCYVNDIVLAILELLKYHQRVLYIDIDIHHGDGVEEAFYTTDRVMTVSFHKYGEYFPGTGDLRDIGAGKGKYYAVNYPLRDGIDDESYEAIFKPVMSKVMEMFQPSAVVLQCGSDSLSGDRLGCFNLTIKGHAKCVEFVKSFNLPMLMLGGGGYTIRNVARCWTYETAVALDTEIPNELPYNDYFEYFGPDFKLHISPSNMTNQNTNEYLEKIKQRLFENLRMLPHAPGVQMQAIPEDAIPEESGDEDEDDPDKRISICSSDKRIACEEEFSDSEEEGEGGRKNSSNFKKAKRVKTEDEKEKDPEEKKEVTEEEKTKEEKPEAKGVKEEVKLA

## COc1ccc(/C=C/C(=O)NO)c(-c2ccc(-c3ccccc3)cc2)c1 [Compound 22d, (E)-N-Hydroxy-4-methoxy-2-(biphenyl-4-yl)cinnamide]
HDAC1
  IC50: 3 ± 0.2 nM
HeLa nuclear HDACs
  IC50: > 10000 nM
MV4-11 cells [1]; 48-hr, Annexin V labeling, read-out: MV4-11 Apoptosis IC50
  IC50: 2710 nM
MV4-11 cells [1]; 48 h, result in words
  survival of MV4-11 cells: decreases with increased HDAC8i concentration
MOLM13 cells
  IC50: 2420 nM
[2]; 48 h, compared to normal CD34+ cells or non-inv(16) AML
  apoptosis of inv(16)+ AML CD34+ cells: selectively induced apoptosis
[2]; p53 shRNA vs non-silencing shRNA control, 2.5-40 μM
  22d-induced apoptosis after p53 knock-down: reduction of 22d-induced apoptosis
CM-p53 protein complex
  interaction of CM with p53: did not disrupt the interaction of CM with p53
HDAC3
  IC50: 3 ± 0.1 nM
H1299 cells; read-out: Cytotoxicity IC50 H1299, mean SD of three determinations
  IC50: 7.2 ± 0.7 nM
H1299 cells; result in words
  anti-proliferative effects in H1299 cells: moderate anti-proliferative effects
MV4-11 cells [3]
  IC50: 2480 nM
[4]
  Ac-p53 and p53 signal by western blot: greater signal for Ac-p53 and p53
[5]; 5-7 weeks after transplant of 5×10^6 BM cells
  leukemia onset in secondary recipients: no signs of leukemia
[5]; 8 weeks after transplantation of BM from treated mice
  frequency and number of AML cells in bone marrow of secondary recipients: Significant reduction in the frequency (p<0.0001) and the number (p=0.0006)
[5]; intraperitoneal 50 mg/kg/dose twice a day for 2 weeks, vs vehicle
  frequency and number of dTomato+/cKit+ AML cells in the bone marrow: significantly reduced the frequency (p=0.0097) and the number (p=0.0101)
[6]
  expression of p53 target genes in inv(16)+ AML CD34+ cells: significantly induced expression of p53 target genes
Normal IMR-90 cells
  cytotoxicity in normal IMR-90 cells: no significant cytotoxicity
CL1-5 cells; read-out: Cytotoxicity IC50 Cl1-5, mean SD of three determinations
  IC50: 7 ± 1.5 nM
CL1-5 cells; result in words
  activity in CL1-5 cells: activity similar to that of SAHA
OCI-AML3 cells; 48-hr, Annexin V labeling, read-out: OCI-AML3 Apoptosis IC50
  IC50: 8120 nM
OCI-AML3 cells; 48 h, result in words
  survival of OCI-AML3 cells: decreases with increased HDAC8i concentration
